Source: ChEMBL document CHEMBL3045156, “Synthesis and fungicidal evaluation of 2-arylphenyl ether-3-(1H-1,2,4-triazol-1-yl)propan-2-ol derivatives” (2009)

How the values were obtained:
Type in all cases: functional
Conditions in all cases: read-out: GI
[1] = system: Fusarium oxysporum; experiment: Fungicidal activity against Fusarium oxysporum assessed as growth inhibition at 50 ug/mL
[2] = system: Botryosphaeria berengeriana; experiment: Fungicidal activity against Botryosphaeria berengeriana assessed as growth inhibition at 50 ug/mL
[3] = system: Mycosphaerella arachidis; experiment: Fungicidal activity against Mycosphaerella arachidis assessed as growth inhibition at 50 ug/mL
[4] = system: Alternaria solani; experiment: Fungicidal activity against Alternaria solani assessed as growth inhibition at 50 ug/mL
[5] = system: Fusarium graminearum; experiment: Fungicidal activity against Fusarium graminearum assessed as growth inhibition at 50 ug/mL
[6] = system: Fusarium oxysporum; experiment: Fungicidal activity against Fusarium oxysporum assessed as growth inhibition at 1 ug/mL
[7] = system: Botryosphaeria berengeriana; experiment: Fungicidal activity against Botryosphaeria berengeriana assessed as growth inhibition at 1 ug/mL
[8] = system: Mycosphaerella arachidis; experiment: Fungicidal activity against Mycosphaerella arachidis assessed as growth inhibition at 1 ug/mL
[9] = system: Alternaria solani; experiment: Fungicidal activity against Alternaria solani assessed as growth inhibition at 1 ug/mL
[10] = system: Fusarium graminearum; experiment: Fungicidal activity against Fusarium graminearum assessed as growth inhibition at 1 ug/mL
[11] = system: Fusarium oxysporum; experiment: Fungicidal activity against Fusarium oxysporum assessed as growth inhibition at 5 ug/mL
[12] = system: Botryosphaeria berengeriana; experiment: Fungicidal activity against Botryosphaeria berengeriana assessed as growth inhibition at 5 ug/mL
[13] = system: Alternaria solani; experiment: Fungicidal activity against Alternaria solani assessed as growth inhibition at 5 ug/mL
[14] = system: Fusarium graminearum; experiment: Fungicidal activity against Fusarium graminearum assessed as growth inhibition at 5 ug/mL
[15] = system: Mycosphaerella arachidis; experiment: Fungicidal activity against Mycosphaerella arachidis assessed as growth inhibition at 5 ug/mL

SMILES	inhibition of growth at 50 µg/mL [1]	inhibition of growth at 50 µg/mL [2]	inhibition of growth at 50 µg/mL [3]	inhibition of growth at 50 µg/mL [4]	inhibition of growth at 50 µg/mL [5]	inhibition of growth at 1 µg/mL [6]	inhibition of growth at 1 µg/mL [7]	inhibition of growth at 1 µg/mL [8]	inhibition of growth at 1 µg/mL [9]	inhibition of growth at 1 µg/mL [10]	inhibition of growth at 5 µg/mL [11]	inhibition of growth at 5 µg/mL [12]	inhibition of growth at 5 µg/mL [13]	inhibition of growth at 5 µg/mL [14]	inhibition of growth at 5 µg/mL [15]
OC(/C=C/c1ccc(Cl)c(Cl)c1)(Cn1cncn1)c1ccc(Oc2ccc(Cl)cc2)cc1Cl (stereo not given)	57.1%	64.6%	100%	66.7%	53.6%	–	–	–	–	–	–	–	–	–	–
Cc1ccc(/C=C/C(O)(Cn2cncn2)c2ccc(Oc3ccc(Cl)cc3)cc2Cl)cc1 (stereo not given)	60.2%	59.3%	95%	63.2%	51.8%	–	–	–	–	–	–	–	–	–	–
CC1COC(Cn2cncn2)(c2ccc(Oc3ccc(Cl)cc3)cc2Cl)O1 (stereo not given) [DIFENOCONAZOLE]	99.9%	100%	100%	99.2%	100%	53.1%	69.7%	56.7%	95%	73.9%	–	–	–	–	–
OC(/C=C/c1ccccc1)(Cn1cncn1)c1ccc(Oc2ccc(Cl)cc2)cc1Cl (stereo not given)	68.7%	67.9%	100%	81.2%	64.3%	–	–	–	–	–	–	–	–	–	–
OC(/C=C/c1ccccc1F)(Cn1cncn1)c1ccc(Oc2ccc(Cl)cc2)cc1Cl (stereo not given)	65.9%	52.1%	99.3%	55%	61.4%	–	–	–	–	–	–	–	–	–	–
COCC(O)(Cn1cncn1)c1ccc(Oc2ccc(F)cc2)cc1Cl (stereo not given)	100%	100%	100%	100%	100%	82.7%	89.5%	76.2%	96.9%	57.2%	–	–	–	–	–
OC(/C=C/c1ccc(Cl)cc1Cl)(Cn1cncn1)c1ccc(Oc2ccc(Cl)cc2)cc1Cl (stereo not given)	50.9%	58.7%	97.8%	54.4%	37.2%	–	–	–	–	–	–	–	–	–	–
CC(O)(Cn1cncn1)c1ccc(Oc2ccc(F)cc2)cc1Cl (stereo not given)	99%	100%	99%	100%	98%	17.9%	48.7%	37.5%	20%	0%	–	–	–	–	–
CCNCC(O)(Cn1cncn1)c1ccc(Oc2ccc(Cl)cc2)cc1Cl (stereo not given)	86.9%	75.4%	61.4%	63.8%	56.8%	–	–	–	–	–	–	–	–	–	–
CC(C)(C)C(O)(CCc1ccc(Cl)cc1)Cn1cncn1 (stereo not given) [TEBUCONAZOLE]	100%	100%	100%	100%	100%	65.6%	68.2%	91%	65.5%	86.9%	–	–	–	–	–
OC(CNC1CCCCC1)(Cn1cncn1)c1ccc(Oc2ccc(Cl)cc2)cc1Cl (stereo not given)	78.9%	100%	75.2%	87.3%	47.5%	–	–	–	–	–	–	–	–	–	–
OC(Cn1cncn1)(Cn1nnc2ccccc21)c1ccc(Oc2ccc(Cl)cc2)cc1Cl (stereo not given)	48.7%	55.6%	62.7%	53.3%	45.4%	–	–	–	–	–	–	–	–	–	–
CONCC(O)(Cn1cncn1)c1ccc(Oc2ccc(Cl)cc2)cc1Cl (stereo not given)	100%	100%	98.4%	100%	97.3%	0%	84.2%	55.3%	61.3%	18.2%	–	–	–	–	–
OC(/C=C/c1ccc(Cl)cc1)(Cn1cncn1)c1ccc(Oc2ccc(Cl)cc2)cc1Cl (stereo not given)	57.1%	64.1%	95%	76.8%	77.2%	–	–	–	–	–	–	–	–	–	–
COc1ccc(/C=C/C(O)(Cn2cncn2)c2ccc(Oc3ccc(Cl)cc3)cc2Cl)cc1 (stereo not given)	55.4%	64.5%	91.3%	55%	61.4%	–	–	–	–	–	–	–	–	–	–
COCC(O)(Cn1cncn1)c1ccc(Oc2ccc(Cl)cc2)cc1Cl (stereo not given)	100%	100%	99.1%	100%	98.7%	89.9%	99.2%	78.6%	98.7%	63.2%	–	–	–	–	–
CN(C)CC(O)(Cn1cncn1)c1ccc(Oc2ccc(Cl)cc2)cc1Cl (stereo not given)	100%	100%	97.2%	99.1%	96.9%	0%	27.7%	0%	18.6%	4.2%	–	–	–	–	–
OC(Cn1ccnc1)(Cn1cncn1)c1ccc(Oc2ccc(F)cc2)cc1Cl (stereo not given)	57.1%	87.9%	100%	73.2%	84.3%	–	–	–	–	–	–	–	–	–	–
OC(Cn1cncn1)(Cn1cncn1)c1ccc(Oc2ccc(Cl)cc2)cc1Cl	99%	100%	100%	99%	100%	62.5%	90.3%	88.1%	58.6%	82.6%	80.9%	91%	84.2%	100%	100%
CNCC(O)(Cn1cncn1)c1ccc(Oc2ccc(F)cc2)cc1Cl (stereo not given)	100%	100%	100%	100%	100%	68.7%	74.6%	72.1%	86.7%	67.2%	–	–	–	–	–
OC(Cn1cncn1)(Cn1cncn1)c1ccc(Oc2ccc(F)cc2)cc1Cl	100%	95.9%	100%	97.5%	95%	90%	49.3%	39.5%	75%	21.8%	–	–	–	–	–
OC(CN1CCOCC1)(Cn1cncn1)c1ccc(Oc2ccc(Cl)cc2)cc1Cl (stereo not given)	34.4%	65.2%	60%	55.2%	78.3%	–	–	–	–	–	–	–	–	–	–
CNCC(O)(Cn1cncn1)c1ccc(Oc2ccc(Cl)cc2)cc1Cl (stereo not given)	100%	100%	99%	99%	98%	0%	96%	57.2%	50.3%	72.5%	–	–	–	–	–
OC(Cn1ccnc1)(Cn1cncn1)c1ccc(Oc2ccc(Cl)cc2)cc1Cl (stereo not given)	95%	99%	100%	99%	71.4%	–	–	–	–	–	–	–	–	–	–
CSCC(O)(Cn1cncn1)c1ccc(Oc2ccc(Cl)cc2)cc1Cl (stereo not given)	78.9%	100%	82.4%	83.7%	37.2%	–	–	–	–	–	–	–	–	–	–
OCCNCC(O)(Cn1cncn1)c1ccc(Oc2ccc(Cl)cc2)cc1Cl (stereo not given)	100%	97.7%	72.2%	98.5%	37.3%	–	–	–	–	–	–	–	–	–	–
CC(O)(Cn1cncn1)c1ccc(Oc2ccc(Cl)cc2)cc1Cl (stereo not given)	85.3%	100%	100%	78.2%	100%	–	–	–	–	–	–	–	–	–	–
OCC(O)(Cn1cncn1)c1ccc(Oc2ccc(Cl)cc2)cc1Cl (stereo not given)	77.1%	99%	100%	99%	99%	–	–	–	–	–	–	–	–	–	–
OC(/C=C/c1c(Cl)cccc1Cl)(Cn1cncn1)c1ccc(Oc2ccc(Cl)cc2)cc1Cl (stereo not given)	51.8%	79.3%	92.4%	60.7%	50.3%	–	–	–	–	–	–	–	–	–	–
